The source of these data is patent US20220033434A1, “ANDROGEN RECEPTOR NUCLEIC ACIDS AND USES THEREOF” (Avidity Biosciences, Inc., priority 2016, published 2022).

In the oligonucleotide strings, read from the 5' end, every base follows the letter of its sugar. An asterisk marks phosphorothioate; unmarked linkages are phosphodiester. Other units and linkages are bracketed, terminal groups are in braces. A string of capitals states the bases alone. d = 2'-deoxy (DNA); m = 2'-O-methyl; f = 2'-fluoro

Assay type in all cases: cell-based, human
For series [1], the system named is AR FL(1). Kind of series: AR protein knock-down by Western blot after siRNA transfection in 22RV1 cells: AR FL(1). To be noted: 5 nM siRNA, 50 h post transfection, compared to controls. On the procedure:
(§1) In some instances, a set of AR siRNAs were identified that were predicted to be specific in human and non-human primates (NHP) and cross-reactive with NHPs but not rodent AR mRNA. To identify AR siRNAs that regulate both full length AR and clinically relevant AR splice variants, the search for AR siRNAs was focused primarily, but not exclusively, on exons 1, 2 and 3 of the AR gene, which are common to most AR isoforms. The resulting set of 50 AR siRNAs (Tables 1-3) was assessed in two prostate cancer lines that express high levels of either clinically relevant AR splice variants (22RV1, ATCC) or a full length AR T877A LBD mutant (LNCaP, ATCC). The response of LNCaP tumors in xenograft models to AR antagonists is known to correlate well with clinical responses.
(§2) To monitor their ability to downregulate various AR isoforms, each siRNA was formulated at a single final concentration of 5 nM with a commercially-available transfection reagent (Lipofectamine RNAiMAX, Life Technologies) according to the manufacturer's “forward transfection” instructions. At 50 h (22RV1) and 72 h (LNCaP) post transfection, cells were harvested, and lysed in RIPA buffer (Pierce) supplemented with HALT protease inhibitors (Pierce) using standard procedures. The protein concentration was determined using a BCA protein concentration kit (Pierce). To monitor AR levels in these lysates, proteins (30 ug/lane) were separated by PAGE on BOLT 4-12% Bis-Tris PA gels (Life Technologies), transferred to nitrocellulose using an iBlot dry blot system (Thermo Fisher), and probed with specific antibodies against a region of the N-terminal domain of human AR that is common in known clinically relevant splice variants (N20, Santa Cruz Biotech). A second antibody against α-Tubulin was used as control (P16, Santa Cruz Biotech). Levels of these proteins in the respective cell lysates were quantified on an Odyssey imaging system (LICOR) using appropriate secondary antibodies linked to IRDyes (800CW, 680RD).

Series [2] deals with AR-SV(2). Kind of series: AR protein knock-down by Western blot after siRNA transfection in 22RV1 cells: AR-SV(2). Particulars: 5 nM siRNA, 50 h post transfection, compared to controls. On the procedure: as §1, §2
The subject of series [3] is AR-SV(3). Kind of series: AR protein knock-down by Western blot after siRNA transfection in 22RV1 cells: AR-SV(3). To be noted: 5 nM siRNA, 50 h post transfection, compared to controls. On the procedure:
as §1, §2

Series [4] has as its system AR FL (full length AR T877A LBD mutant). Kind of series: AR protein knock-down by Western blot after siRNA transfection in LNCaP cells: AR FL. Particulars: 5 nM siRNA, 72 h post transfection, compared to controls. On the procedure:
as §1, §2

On to “XD-01838: AR siRNA with chemical modification, Id # 2931; sense X05371 (SEQ ID NO: 201), antisense X05372 (SEQ ID NO: 202) (sense mAmAfAmUfUmCfCmGfAmAfGmGfAmAfAmAfAmUfUdT*dT; antisense fAfAmUfUmUfUmUfCmCfUmUfCmGfGmAfAmUfUmUdT*dT)”, for which the “% KD AR Protein 22RV1 AR FL(1)” value in series [1] turned out to be 85%. Moreover, in series [2], the “% KD AR Protein 22RV1 AR-SV(2)” value amounted to 65%. In addition, the “% KD AR Protein 22RV1 AR-SV(3)” value in series [3] is reported as 67%. Also, the “% KD AR Protein LNCaP AR FL” value in series [4] came out at 88%.
For “XD-01839: AR siRNA with chemical modification, Id # 2933; sense X05373 (SEQ ID NO: 203), antisense X05374 (SEQ ID NO: 204) (sense mAmUfUmCfCmGfAmAfGmGfAmAfAmAfAmUfUmGfUdT*dT; antisense fAfCmAfAmUfUmUfUmUfCmCfUmUfCmGfGmAfAmUdT*dT)”, in that order: 76%, 62%, 56% and 93%.
For “XD-01840: AR siRNA with chemical modification, Id # 2935; sense X05375 (SEQ ID NO: 205), antisense X05376 (SEQ ID NO: 206) (sense mUmCfCmGfAmAfGmGfAmAfAmAfAmUfUmGfUmCfCdT*dT; antisense fGfGmAfCmAfAmUfUmUfUmUfCmCfUmUfCmGfGmAdT*dT)”, in that order: 89%, 89%, 75% and 97%.
The corresponding values for “XD-01841: AR siRNA with chemical modification, Id # 2936; sense X05377 (SEQ ID NO: 207), antisense X05378 (SEQ ID NO: 208) (sense mCmCfGmAfAmGfGmAfAmAfAmAfUmUfGmUfCmCfAdT*dT; antisense fUfGmGfAmCfAmAfUmUfUmUfUmCfCmUfUmCfGmGdT*dT)” are 85%, 85%, 74% and 99%.
As to “XD-01842: AR siRNA with chemical modification, Id # 2940; sense X05379 (SEQ ID NO: 209), antisense X05380 (SEQ ID NO: 210) (sense mAmGfGmAfAmAfAmAfUmUfGmUfCmCfAmUfCmUfUdT*dT; antisense fAfAmGfAmUfGmGfAmCfAmAfUmUfUmUfUmCfCmUdT*dT)”, the “% KD AR Protein 22RV1 AR FL(1)” value in series [1] was determined as 89%. Further, the “% KD AR Protein 22RV1 AR-SV(2)” value in series [2] was found to be 94%. Besides, in series [3], the “% KD AR Protein 22RV1 AR-SV(3)” value is reported as 84%. Further, in series [4], the “% KD AR Protein LNCaP AR FL” value was 101%.
For “XD-01843: AR siRNA with chemical modification, Id # 2961; sense X05381 (SEQ ID NO: 211), antisense X05382 (SEQ ID NO: 212) (sense mCmGfUmCfUmUfCmGfGmAfAmAfUmGfUmUfAmUfGdT*dT; antisense fCfAmUfAmAfCmAfUmUfUmCfCmGfAmAfGmAfCmGdT*dT)”, the “% KD AR Protein 22RV1 AR FL(1)” value in series [1] turned out to be 78%. Moreover, the “% KD AR Protein 22RV1 AR-SV(2)” value in series [2] worked out at 75%. Further, in series [3], the “% KD AR Protein 22RV1 AR-SV(3)” value is on record as 47%. The “% KD AR Protein LNCaP AR FL” value in series [4] is listed as 94%.
The corresponding values for “XD-01844: AR siRNA with chemical modification, Id # 2962; sense X05383 (SEQ ID NO: 213), antisense X05384 (SEQ ID NO: 214) (sense mGmUfCmUfUmCfGmGfAmAfAmUfGmUfUmAfUmGfAdT*dT; antisense fUfCmAfUmAfAmCfAmUfUmUfCmCfGmAfAmGfAmCdT*dT)” are 56%, 54%, 26% and 81%.
The corresponding values for “XD-01845: AR siRNA with chemical modification, Id # 2966; sense X05385 (SEQ ID NO: 215), antisense X05386 (SEQ ID NO: 216) (sense mUmCfGmGfAmAfAmUfGmUfUmAfUmGfAmAfGmCfAdT*dT; antisense fUfGmCfUmUfCmAfUmAfAmCfAmUfUmUfCmCfGmAdT*dT)” are 92%, 92%, 72% and 99%.
For “XD-01846: AR siRNA with chemical modification, Id # 2975; sense X05387 (SEQ ID NO: 217), antisense X05388 (SEQ ID NO: 218) (sense mUmUfAmUfGmAfAmGfCmAfGmGfGmAfUmGfAmCfUdT*dT; antisense fAfGmUfCmAfUmCfCmCfUmGfCmUfUmCfAmUfAmAdT*dT)”, the “% KD AR Protein 22RV1 AR FL(1)” value in series [1] is 87%. The “% KD AR Protein 22RV1 AR-SV(2)” value in series [2] is recorded as 94%. Also, in series [3], the “% KD AR Protein 22RV1 AR-SV(3)” value turned out to be 76%. For the same substance, in series [4], the “% KD AR Protein LNCaP AR FL” value is given as 94%.
Consider “XD-01847: AR siRNA with chemical modification, Id # 3020; sense X05389 (SEQ ID NO: 219), antisense X05390 (SEQ ID NO: 220) (sense mUmGfGmUfAmAfUmCfUmGfAmAfAmCfUmAfCmAfGdT*dT; antisense fCfUmGfUmAfGmUfUmUfCmAfGmAfUmUfAmCfCmAdT*dT)”, for which the “% KD AR Protein 22RV1 AR FL(1)” value in series [1] was 28%. The “% KD AR Protein 22RV1 AR-SV(2)” value in series [2] was −10%. The “% KD AR Protein 22RV1 AR-SV(3)” value in series [3] is −68%. Besides, in series [4], the “% KD AR Protein LNCaP AR FL” value is recorded as 69%.
For “XD-01848: AR siRNA with chemical modification, Id # 3101; sense X05391 (SEQ ID NO: 221), antisense X05392 (SEQ ID NO: 222) (sense mGmUfCmAfCmAfCmAfUmUfGmAfAmGfGmCfUmAfUdT*dT; antisense fAfUmAfGmCfCmUfUmCfAmAfUmGfUmGfUmGfAmCdT*dT)”, in that order: 87%, 31%, 27% and 101%.
For “XD-01849: AR siRNA with chemical modification, Id # 3105; sense X05393 (SEQ ID NO: 223), antisense X05394 (SEQ ID NO: 224) (sense mCmAfCmAfUmUfGmAfAmGfGmCfUmAfUmGfAmAfUdT*dT; antisense fAfUmUfCmAfUmAfGmCfCmUfUmCfAmAfUmGfUmGdT*dT)”, in that order: 86%, 7%, −40% and 92%.
The corresponding values for “XD-01850: AR siRNA with chemical modification, Id # 3107; sense X05395 (SEQ ID NO: 225), antisense X05396 (SEQ ID NO: 226) (sense mCmAfUmUfGmAfAmGfGmCfUmAfUmGfAmAfUmGfUdT*dT; antisense fAfCmAfUmUfCmAfUmAfGmCfCmUfUmCfAmAfUmGdT*dT)” are 86%, 14%, 5% and 82%.
